# Reference: PubChem BioAssay (NCI)
#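 Cells were grown in 96-well plates and exposed to each compound for 48 hours at five concentrations; endpoints were interpolated linearly between bracketing concentrations, or set to the highest concentration if not reached. TGI marks complete inhibition of growth.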
# How the values were obtained:
# Experiment in all cases: growth of human tumour cells (NCI), 48 h
# [1] = tested on: U251 CNS
# [2] = tested on: RPMI-8226 leukemia
# [3] = tested on: XF 498 CNS
# [4] = tested on: SNB-19 CNS
# [5] = tested on: DMS 273 small cell lung
# [6] = tested on: OVCAR-3 ovarian
# [7] = tested on: DMS 114 small cell lung
# [8] = tested on: SNB-78 CNS
# [9] = tested on: SK-MEL-28 melanoma
# [10] = tested on: HT29 colon
# [11] = tested on: A549 NSCLC
# [12] = tested on: CCRF-CEM leukemia
# [13] = tested on: SF-268 CNS
# [14] = tested on: NCI-H23 lung
# [15] = tested on: SF-295 CNS
# [16] = tested on: HCT-116 colon
# [17] = tested on: NCI-H522 lung
# [18] = tested on: LOX IMVI melanoma
# [19] = tested on: TK-10 renal
# [20] = tested on: A498 renal
# [21] = tested on: RXF 393 renal
# [22] = tested on: MOLT-4 leukemia
# [23] = tested on: M19-MEL melanoma
# [24] = tested on: OVCAR-4 ovarian
# [25] = tested on: 786-0 renal
# [26] = tested on: SNB-75 CNS
# [27] = tested on: SN12C renal
# [28] = tested on: EKVX NSCLC
# [29] = tested on: RXF-631 renal
# [30] = tested on: MALME-3M melanoma
# [31] = tested on: SF-539 CNS
# [32] = tested on: SR leukemia
# [33] = tested on: HCC-2998 colon
# [34] = tested on: HL-60(TB) leukemia
# [35] = tested on: HCT-15 colon
# [36] = tested on: SW-620 colon
# [37] = tested on: NCI-H460 lung
# [38] = tested on: ACHN renal
# [39] = tested on: M14 melanoma
# [40] = tested on: UO-31 renal
# [41] = tested on: UACC-62 melanoma
# [42] = tested on: HOP-62 NSCLC
# [43] = tested on: NCI-H226 lung
# [44] = tested on: K-562 leukemia
# [45] = tested on: HOP-92 NSCLC
# [46] = tested on: KM12 colon
# [47] = tested on: COLO 205 colon
# [48] = tested on: SK-MEL-5 melanoma
# [49] = tested on: SK-MEL-2 melanoma
# [50] = tested on: SK-OV-3 ovarian
# [51] = tested on: OVCAR-8 ovarian
# [52] = tested on: LXFL 529 NSCLC
# [53] = tested on: OVCAR-5 ovarian
# [54] = tested on: IGROV1 ovarian
# [55] = tested on: UACC-257 melanoma
# [56] = tested on: DLD-1 colon
# [57] = tested on: CAKI-1 renal
# [58] = tested on: KM20L2 colon
smiles,measurement,setting,value
COc1ccc(OCC(=O)O)c(C(=O)CCC(=O)O)c1,TGI,[1],> 100 µM
same,TGI,[2],> 100 µM
same,TGI,[3],> 100 µM
same,TGI,[4],> 100 µM
same,TGI,[5],> 100 µM
same,TGI,[6],> 10 µM
same,TGI,[7],> 100 µM
same,TGI,[8],> 100 µM
same,TGI,[9],> 100 µM
same,TGI,[10],> 100 µM
same,TGI,[11],> 100 µM
same,TGI,[12],> 100 µM
same,TGI,[13],> 100 µM
same,TGI,[14],> 100 µM
same,TGI,[15],> 100 µM
same,TGI,[16],> 100 µM
same,TGI,[17],> 100 µM
same,TGI,[18],> 100 µM
same,TGI,[19],> 100 µM
same,TGI,[20],> 100 µM
same,TGI,[21],> 100 µM
same,TGI,[22],> 100 µM
same,TGI,[23],> 100 µM
same,TGI,[24],> 100 µM
same,TGI,[25],> 100 µM
same,TGI,[26],> 100 µM
same,TGI,[27],> 100 µM
same,TGI,[28],> 100 µM
same,TGI,[29],> 100 µM
same,TGI,[30],> 100 µM
same,TGI,[31],> 100 µM
same,TGI,[32],> 100 µM
same,TGI,[33],> 100 µM
same,TGI,[34],> 100 µM
same,TGI,[35],> 100 µM
same,TGI,[36],> 100 µM
same,TGI,[37],> 100 µM
same,TGI,[38],> 100 µM
same,TGI,[39],> 10 µM
same,TGI,[40],> 100 µM
same,TGI,[41],> 10 µM
same,TGI,[42],> 10 µM
same,TGI,[43],> 100 µM
same,TGI,[44],> 100 µM
same,TGI,[45],> 100 µM
same,TGI,[46],> 100 µM
same,TGI,[47],> 100 µM
same,TGI,[48],> 100 µM
same,TGI,[49],> 100 µM
same,TGI,[50],> 100 µM
same,TGI,[51],> 100 µM
same,TGI,[52],> 100 µM
same,TGI,[53],> 100 µM
same,TGI,[54],> 100 µM
same,TGI,[55],> 100 µM
same,TGI,[56],> 100 µM
Cc1cc(C)cc(NC(N)=S)c1,TGI,[57],> 100 µM
same,TGI,[1],> 100 µM
same,TGI,[2],> 100 µM
same,TGI,[3],> 100 µM
same,TGI,[4],> 100 µM
same,TGI,[5],> 100 µM
same,TGI,[6],> 100 µM
same,TGI,[7],> 100 µM
same,TGI,[8],> 100 µM
same,TGI,[9],> 100 µM
same,TGI,[10],> 100 µM
same,TGI,[11],> 100 µM
same,TGI,[12],48 µM
same,TGI,[13],> 100 µM
same,TGI,[14],> 100 µM
same,TGI,[15],> 100 µM
same,TGI,[16],> 100 µM
same,TGI,[17],> 100 µM
same,TGI,[18],89.5 µM
same,TGI,[58],> 100 µM
same,TGI,[19],> 100 µM
same,TGI,[20],> 100 µM
same,TGI,[21],98.1 µM
same,TGI,[22],> 100 µM
same,TGI,[23],> 100 µM
same,TGI,[24],> 100 µM
same,TGI,[25],> 100 µM
same,TGI,[26],> 100 µM
same,TGI,[27],> 100 µM
same,TGI,[28],> 100 µM
same,TGI,[29],> 100 µM
same,TGI,[30],> 100 µM
same,TGI,[31],> 100 µM
same,TGI,[32],> 100 µM
same,TGI,[33],> 100 µM
same,TGI,[34],> 100 µM
same,TGI,[35],38.4 µM
same,TGI,[36],18 µM
same,TGI,[37],> 100 µM
same,TGI,[38],> 100 µM
same,TGI,[39],> 100 µM
same,TGI,[40],> 100 µM
same,TGI,[41],> 100 µM
same,TGI,[42],> 100 µM
same,TGI,[43],> 100 µM
same,TGI,[44],> 100 µM
same,TGI,[45],> 100 µM
same,TGI,[46],> 100 µM
same,TGI,[47],59.1 µM
same,TGI,[48],> 100 µM
same,TGI,[49],> 100 µM
same,TGI,[51],> 100 µM
same,TGI,[52],> 100 µM
same,TGI,[53],> 100 µM
same,TGI,[54],> 100 µM
same,TGI,[55],> 100 µM
same,TGI,[56],> 100 µM
